Source: US20060094722A1 (Eisai Co., Ltd., priority 2002, published 2006)
“And” between values parts separate entries of the source, which are not always exact repeats. Equal values may be shown once. Read-outs that look alike come from different tables or passages of the source.

How the values were obtained:
[1] = test system: Zucker fa/fa rats; conditions: 300 mg/kg p.o. twice daily for 14 days
Experimental: (§1) Animals: Zucker fa/fa Rats, an Animal Model for TypeII Diabetes (Purchased from Charles River Japan, Inc.)
(§2) Each test compound was dissolved in distilled water at the doses shown in the Tables indicated below, and then administered orally at a volume of 5 mL/kg. The vehicle control group was orally administered distilled water at a volume of 5 mL/kg. […] The rats were tested for glucose tolerance on the first day of the administration series. In the test, distilled water and the test compounds were given 0.5 hour before glucose load.
Food intake and body weight were determined at 4:00 p.m after the 14-day administration series. Total food intake and weight gain over 14 days were determined for each experimental group.

[2] = test system: BALB/c AnCrj mice; conditions: 300 mg/kg p.o. twice a day, 5-FU treatment 60 mg/kg for 3 days, mice
Experimental: Animals: BALB/c AnCrj Mice (Purchased from Charles River Japan, Inc.)
5-FU (purchased from Sigma) was suspended in a solution of 0.5% methyl cellulose, and then administered orally at a volume of 10 mL/kg/day (8 a.m. to 9 a.m.) for 3 days (60 mg/kg). […] The vehicle control group was orally administered a solution of 0.5% methyl cellulose at a volume of 10 mL/kg.
Mice were fasted for 18 hours following the afternoon administration on the third day of the administration series. On the following day, the mice were killed by cervical dislocation, and then the whole small intestine was excised and the wet weight was measured.

[3] = test system: DPPIV-intact normal male Fisher rats; assay: Influences of metformin and DPPIV inhibitors (Examples 82, 119, 120, 122, 229, 267), singly or in combination, on GLP-1 level in normal rats; type: in vivo, rat
Experimental: Animals: DPPIV-Intact Normal Male Fisher Rats (Purchased from CLEA Japan, Inc.)
250 μL of blood was collected from the rat using a heparinized capillary and transferred into a centrifugation tube.

[4] = test system: DPPIV-deficient male Fisher rats; assay: Influence of metformin on the level of GLP-2 in DPPIV-deficient rats; type: in vivo, rat; conditions: 300 mg/kg p.o.; for GLP-2 concentration at each time point (hr) after oral administration (ng/ml): listed as metformin
Experimental: Animals: DPPIV-Deficient Male Fisher Rats (Purchased from Charles River Japan, Inc.)
The test compound was suspended in a solution of 0.5% methyl cellulose at the dose indicated in Table 11, and then administered orally at a volume of 5 mL/kg. The vehicle control group was orally administered an aqueous solution of 0.5% methyl cellulose at a volume of 5 mL/kg.
An unanesthetized rat was lightly cut at the caudal vein with a razor blade and bled immediately before, and at 1, 3, and 5 hours after administration of a test compound or a solution of 0.5% methyl cellulose. 250 μL of blood was collected from the rat using a heparinized capillary and transferred into a centrifugation tube. The supernatant obtained by centrifugation (at 10000 g at 4° C. for 2 minutes) was assayed for GLP-2 level using GLP-2 ELISA kit (Yanaihara Institute Inc.).

[5] = test system: Zucker fa/fa rats; conditions: for Blood glucose level at each time point (hr) after oral glucose administration / GLP-1 concentration at each time point (hr) after oral glucose administration (% of Pre) / Insulin concentration at each time point (hr) after oral glucose administration: 300 mg/kg p.o. 0.5 hour before glucose load
Experimental: as §1, §2
For the glucose tolerance test, an unanesthetized rat was lightly cut at the caudal vein with a razor blade and bled immediately before the administration of a test compound or distilled water, and immediately before, and at 0.5, 1, 2, and 3 hours after glucose load. 250 μL of blood was collected from the rat using a heparinized capillary and transferred into a centrifugation tube. The supernatant obtained by centrifugation (at 10000 g at 4° C. for 2 minutes) was assayed for active GLP-1 level using Active GLP-1 ELISA kit (Linco). At the same time, 10 μL of blood was collected and mixed with 140 μL of a 0.6 M perchloric acid solution. The mixture was centrifuged (at 3000 g at 4° C. for 10 minutes), and the resulting supernatant was assayed for glucose using Glucose Test Wako II (Wako Pure Chemical Industries, Inc.). The level of blood glucose alone was determined at the time of measurement 3 hours after glucose load.

[6] = test system: DPPIV-deficient male Fisher rats
Experimental: Animals: DPPIV-deficient male Fisher rats (purchased from Charles River Japan, Inc.)
Each test compound was suspended in a solution of 0.5% methyl cellulose at the doses indicated in Table 2, and then administered orally at a volume of 5 mL/kg. The vehicle control group was orally administered a solution of 0.5% methyl cellulose at a volume of 5 mL/kg.
An unanesthetized rat was lightly cut at the caudal vein with a razor blade and bled immediately before, and at 1, 3, and 5 hours after the administration of a test compound or a solution of 0.5% methyl cellulose. 250 μL of blood was collected from the rat using a heparinized capillary and transferred into a centrifugation tube. The supernatant obtained by centrifugation (at 10000 g at 4° C. for 2 minutes) was assayed for GLP-1 level using Active GLP-1 ELISA kit (Linco).

[7] = test system: DPPIV-intact normal male Fisher rats; conditions: for GLP-1 concentration at each time point (hr) after oral administration (% of Pre): 300 mg/kg p.o.
Experimental: Each test compound was suspended in a solution of 0.5% methyl cellulose at the doses indicated in Table 3, and then administered orally at a volume of 5 mL/kg. The vehicle control group was orally administered a solution of 0.5% methyl cellulose at a volume of 5 mL/kg.
An unanesthetized rat was lightly cut at the caudal vein with a razor blade and bled immediately before, and at 1, 3, and 5 hours after administration of a test compound or a solution of 0.5% methyl cellulose. 250 μL of blood was collected from the rat using a heparinized capillary and transferred into a centrifugation tube. The supernatant obtained by centrifugation (at 10000 g at 4° C. for 2 minutes) was assayed for GLP-1 level using Active GLP-1 ELISA kit (Linco).

With `CN(C)C(=N)N=C(N)N` [Metformin, metformin] the “Total food intake for 14 days” value [1] was 495.1 ± 8.9 g, the “Weight gain for 14 days” value [1] was 64.5 ± 3.5 g and the “Wet weight of small intestine” value [2] was 0.642 ± 0.017 g. For the same compound, the “Wet weight of small intestine (g)” value ([2]; listed as metformin) was “no alteration”, the “GLP-1 concentration 3 hours after oral administration (% of Pre)” value ([3]; 300 mg/kg p.o., 3 hours) was 118.1 ± 7.5 % of Pre and 108.6 ± 2.2 % of Pre and 112.5 ± 2.4 % of Pre and the “level of active GLP-1” value ([3]; 3 hours after administration) was “no increase”. For the same compound, the “GLP-2 concentration at each time point (hr) after oral administration” value ([4]; 0 hr) was 1.32 ± 0.02 ng/mL, the “GLP-2 concentration at each time point (hr) after oral administration” value ([4]; 1 hr) was 1.65 ± 0.06 ng/mL and the “GLP-2 concentration at each time point (hr) after oral administration (ng/ml)” value (shortened to “GLP-2 concentration at each time point … (ng/ml)”) ([4]; 1 hr) was “significantly elevated”. For the same compound, the “GLP-2 concentration at each time point (hr) after oral administration” value ([4]; 3 hr) was 2.08 ± 0.07 ng/mL, the “GLP-2 concentration at each time point … (ng/ml)” value ([4]; 3 hr) was “significantly elevated” and the “GLP-2 concentration at each time point (hr) after oral administration” value ([4]; 5 hr) was 2.15 ± 0.05 ng/mL. For the same compound, the “GLP-2 concentration at each time point … (ng/ml)” value ([4]; 5 hr) was “significantly elevated”, the “level of active GLP-1 during the glucose tolerance test” value [5] was “no significant increase” and the “level of insulin during the glucose tolerance test” value [5] was “no significant increase”. The “Blood glucose level at each time point (hr) after oral glucose administration” value (“Blood glucose level at each time point” below) ([5]; 0 hr) was 117.4 ± 5.5 mg/dL, the “GLP-1 concentration at each time point (hr) after oral glucose administration (% of Pre)” value ([5]; 0 hr) was 105.6 ± 1.7 % of Pre and the “Insulin concentration at each time point (hr) after oral glucose administration” value (“Insulin concentration at each time point” below) ([5]; 0 hr) was 14.0 ± 1.1 ng/mL. The “Blood glucose level at each time point” value ([5]; 0.5 hr) was 160.6 ± 9.7 mg/dL, the “GLP-1 concentration at each time point (hr) after oral glucose administration (% of Pre)” value ([5]; 0.5 hr) was 135.4 ± 7.6 % of Pre and the “Insulin concentration at each time point” value ([5]; 0.5 hr) was 22.9 ± 2.5 ng/mL. For the same compound, the “Blood glucose level at each time point” value ([5]; 1 hr) was 177.5 ± 10.6 mg/dL, the “GLP-1 concentration at each time point (hr) after oral glucose administration (% of Pre)” value ([5]; 1 hr) was 126.0 ± 8.9 % of Pre and the “Insulin concentration at each time point” value ([5]; 1 hr) was 21.2 ± 2.3 ng/mL. For the same compound, the “Blood glucose level at each time point” value ([5]; 2 hr) was 159.8 ± 8.6 mg/dL, the “GLP-1 concentration at each time point (hr) after oral glucose administration (% of Pre)” value ([5]; 2 hr) was 118.4 ± 6.5 % of Pre and the “Insulin concentration at each time point” value ([5]; 2 hr) was 16.9 ± 1.6 ng/mL. The “Blood glucose level at each time point” value ([5]; 3 hr) was 122.4 ± 3.7 mg/dL, the “Blood glucose level at each time point” value ([5]; −0.5 hr) was 108.9 ± 5.6 mg/dL and the “GLP-1 concentration at each time point (hr) after oral glucose administration (% of Pre)” value ([5]; −0.5 hr) was 100.0 ± 0.0 % of Pre. For the same compound, the “Insulin concentration at each time point” value ([5]; −0.5 hr) was 11.9 ± 1.1 ng/mL, the glucose tolerance ([5]; glucose tolerance test) was “improved” and the “GLP-1 concentration at each time point (hr) after oral administration (% of Pre)” value ([6]; 30 mg/kg p.o., 0 hr) was 100 ± 0.0 % of Pre. The “GLP-1 concentration at each time point (hr) after oral administration (% of Pre)” value ([6]; 30 mg/kg p.o., 1 hr) was 99.9 ± 3.7 % of Pre, the “GLP-1 concentration at each time point (hr) after oral administration (% of Pre)” value ([6]; 30 mg/kg p.o., 3 hr) was 106.6 ± 5.0 % of Pre and the “GLP-1 concentration at each time point (hr) after oral administration (% of Pre)” value ([6]; 30 mg/kg p.o., 5 hr) was 116.3 ± 2.7 % of Pre. The “GLP-1 concentration at each time point (hr) after oral administration (% of Pre)” value ([6]; 100 mg/kg p.o., 0 hr) was 100 ± 0.0 % of Pre, the “GLP-1 concentration at each time point (hr) after oral administration (% of Pre)” value ([6]; 100 mg/kg p.o., 1 hr) was 111.6 ± 7.9 % of Pre and the “GLP-1 concentration at each time point (hr) after oral administration (% of Pre)” value ([6]; 100 mg/kg p.o., 3 hr) was 116.3 ± 8.2 % of Pre. The “GLP-1 concentration at each time point (hr) after oral administration (% of Pre)” value ([6]; 100 mg/kg p.o., 5 hr) was 150.6 ± 7.2 % of Pre, the “GLP-1 concentration at each time point (hr) after oral administration (% of Pre)” value ([6]; 300 mg/kg p.o., 0 hr) was 100 ± 0.0 % of Pre and the “GLP-1 concentration at each time point (hr) after oral administration (% of Pre)” value ([6]; 300 mg/kg p.o., 1 hr) was 140.0 ± 11.5 % of Pre. The “GLP-1 concentration at each time point (hr) after oral administration (% of Pre)” value ([6]; 300 mg/kg p.o., 3 hr) was 199.3 ± 32.4 % of Pre, the “GLP-1 concentration at each time point (hr) after oral administration (% of Pre)” value ([6]; 300 mg/kg p.o., 5 hr) was 227.1 ± 35.5 % of Pre and the “GLP-1 concentration at each time point (hr) after oral administration (% of Pre)” value ([6]; 300 mg/kg p.o., 5 hr, listed as metformin) was “significantly elevated”. For the same compound, the “GLP-1 concentration at each time point (hr) after oral administration (% of Pre)” value ([7]; 0 hr) was 100 ± 0.0 % of Pre, the “GLP-1 concentration at each time point (hr) after oral administration (% of Pre)” value ([7]; 1 hr) was 117 ± 9 % of Pre and the “GLP-1 concentration at each time point (hr) after oral administration (% of Pre)” value ([7]; 3 hr) was 149 ± 24 % of Pre. For the same compound, the “GLP-1 concentration at each time point (hr) after oral administration (% of Pre)” value ([7]; 5 hr) was 94 ± 10 % of Pre and the “level of active GLP-1” value ([7]; given singly) was “no increase”.
